These results are taken from patent publication US20250326866A1, “TRANSFERRIN RECEPTOR TARGETING PEPTIDE OLIGONUCLEOTIDE COMPLEXES AND METHODS OF USE THEREOF” (Blaze Bioscience, Inc., priority 2021, published 2025).

The test system of the experiment is CRE-driven luciferase. The experiment can be described thus: CRE-luciferase reporter mice, in vivo brain luminescence. The note with it: 4 hours after IP 1.68 mg rolipram and 0.84 mg forskolin given together.

Text: Transgenic mice expressing firefly luciferase under the control of a cyclic AMP response element (CRE) can be used. Under conditions of elevated cyclic AMP (cAMP) or other mechanisms that activate the transcription factor CRE Binding Protein 1 (CREB), cells in these mice can express luciferase, which can be measured in whole animal luminescence instrumentation (IVIS imager) after IV dosage with a luciferin formulated for animal use. Mice can be validated to express the transgene under proper response element control by dosing these mice with forskolin and rolipram, two drugs that stimulate neuronal cAMP production and inhibit its degradation (respectively). […]
Under conditions of elevated cyclic AMP (cAMP) or other mechanisms that activate the transcription factor CRE Binding Protein 1 (CREB), cells in these mice express luciferase, which are measured in whole animal luminescence instrumentation (IVIS imager) after IV dosage with a luciferin formulated for animal use. […]
Luminescence was measured in anesthetized mice on a Xenogen IVIS instrument with a 1 min exposure. […] For the test peptides for comparison, identical regions of interest encompassing the entire brain were draw and quantified using LivingImage software (version 4.0, PerkinElmer, FIG. 16). […]
Transgenic Mice were first dosed with luciferin and luminescence was measured (“unstimulated”).

`COc1ccc(C2CNC(=O)C2)cc1OC1CCCC1` (stereo not shown) [rolipram]: the “CRE-Luc brain luminescence, positive control” value is recorded as “high levels of luminescence”.
